Patent US6995175B2, “Chemical derivatives and their application as antitelomerase agent” (Aventis Pharma S.A., priority 2001, dated 2006)
pIC50: −log10 of the molar value. Structures can show the parent of a compound that is named as a salt.

Legend:
[1] = test system: G-quadruplex oligonucleotide GGGTTAGGGTTAGGGTTAGGG (3.5 repeats of the human telomeric unit); experiment: G-quadruplex stabilization, fluorescence Tm (FAM+DABCYL oligonucleotide); assay type: binding; details: increase in Tm vs reference without product (44° C. in LiCl buffer), 0.2 μM oligonucleotide, 0.1 M LiCl, 10 mM cacodylate pH 7.6
Source text: The G-quadruplex stabilizing activity may be determined by a method using the formation of a complex with fluorescein of which the experimental protocol is described below.
All the oligonucleotides, modified or otherwise, were synthesized by Eurogentec S A, Seraing, Belgium. The oligonucleotide FAM+DABCYL carries the catalogue reference OL-0371-0802. It has the sequence: […] corresponding to 3.5 repeats of the human telomeric unit (strand rich in G). The fluorescein is attached to the 5′ end, the DABCYL to the 3′ end, by the chemical arms described by Eurogentec. The concentration of the samples is checked by spectrophotometry, recording the absorbance spectrum between 220 and 700 nm and using the molar extinction coefficient provided by the supplier.
All the experiments were carried out in a 10 mM sodium cacodylate buffer pH 7.6 containing 0.1 M lithium chloride (or sodium chloride). The absence of fluorescent contamination in the buffer was checked beforehand. The fluorescent oligonucleotide is added at the final concentration of 0.2 μM.
All the measurements of fluorescence were carried out on a Spex Fluorolog DM1B apparatus, using an excitation line width of 1.8 nm and an emission line width of 4.5 nm. The samples are placed in a microquartz cuvette of 0.2×1 cm. The temperature of the sample is controlled by an external water bath. The oligonucleotide alone was analyzed at 20, 30, 40, 50, 60, 70 and 80° C. The emission spectra are recorded using an excitation wavelength of 470 nm. The excitation spectra are recorded using either 515 nm or 588 nm as emission wavelength. The spectra are corrected for the response of the instrument by reference curves. A high extinction (80–90%) of the fluorescence of fluorescein at room temperature is observed, in agreement with an intramolecular folding of the oligonucleotide at 20° C. in the form of a G-quadruplex, which induces juxtaposition of its 5′ and 3′ ends which are respectively linked to fluorescein and to DABCYL. This juxtaposition causes an already-described phenomenon of extinction of fluorescence which is used for “Molecular Beacons”.
An oligonucleotide stock solution at the strand concentration of 0.2 μM in 0.1 M LiCl, 10 mM cacodylate buffer, pH 7.6, is prepared beforehand, heated briefly at 90° C. and slowly cooled to 20° C., and then distributed in aliquots of 600 μl in the fluorescence cuvettes. […] The samples are then allowed to incubate for at least 1 hour at 20° C. before each measurement. The use of longer incubation times (up to 24 hours) has no influence on the result obtained.
Each experiment allows the measurement of only one sample. The latter is first incubated at an initial temperature of 20° C., heated to 80° C. over 38 minutes, left for 5 minutes at 80° C. and then cooled to 20° C. over 62 minutes. During this time, the fluorescence is measured simultaneously at two emission wavelengths (515 nm and 588 nm) using 470 nm as excitation wavelength. A measurement is carried out every 30 seconds. The temperature of the water bath is recorded in parallel, and the fluorescence profile as a function of the temperature is reconstituted from these values. The fluorescence profiles are then normalized between 20° C. and 80° C., and the temperature for which the intensity of emission at 515 nm is the mean of those at high and low temperature is called Tm. Under these conditions, the Tm of the reference sample without addition of product is 44° C. in a lithium chloride buffer. This temperature is increased to more than 55° C. in a sodium chloride buffer. The addition of a G-quadruplex stabilizing compound induces an increase in the Tm. This increase is judged to be significant if it is greater than 3°.

[2] = test system: human telomerase (HL60 cell extract); experiment: Inhibition of telomerase, TRAP test (TS extension and PCR with HL60 extract); assay type: biochemical; details: telomerase extract from HL60 cells
Description: The extract is stored at -80° C.

| SMILES | pIC50 [2] | G4 Tm (G4 stabilization differential in ° C., product tested at 1 µM) [1] [°C] |
| --- | --- | --- |
| COc1cc(C)nc2ccc(NC(=O)c3ccc(C(=O)Nc4ccc5nc(C)cc(OC)c5c4)s3)cc12 [Example 1, bis[(4-methoxy-2-methylquinolin-6-yl)amido]-2,5-thiophenedicarboxylic acid] | 5.77 | 2.5 |
| Cc1cc(N(C)C)c2cc(NC(=O)c3ccc(C(=O)Nc4ccc5nc(C)cc(N(C)C)c5c4)s3)ccc2n1 [Example 2, bis[(4-dimethylamino-2-methylquinolin-6-yl)amido]-2,5-thiophenedicarboxylic acid] | 6.05 | 10.5 |
| Cc1cc(N)c2cc(NC(=O)c3ccc(C(=O)Nc4ccc5nc(C)cc(N)c5c4)s3)ccc2n1 [Example 3, bis[(4-amino-2-methylquinolin-6-yl)amido]-2,5-thiophenedicarboxylic acid] | 6.02 | 1.7 |
| Cc1cc(N(C)C)c2cc(NC(=O)c3ccc(C(=O)Nc4ccc5nc(C)cc(N(C)C)c5c4)cc3)ccc2n1 [Example 7, N,N′-bis(4-dimethylamino-2-methylquinolin-6-yl)-terephthalamide] | 5.82 | 2 |
| COc1cc(C)nc2ccc(NC(=O)Nc3cccc(NC(=O)Nc4ccc5nc(C)cc(OC)c5c4)c3)cc12 [Example 8, 1-(4-methoxy-2-methylquinolin-6-yl)-3-{3-[3-(4-methoxy-2-methylquinolin-6-yl)ureido]phenyl}urea] | 6.12 | 2.5 |
| Cc1cc(N(C)C)c2cc(NC(=O)Nc3ccc(NC(=O)Nc4ccc5nc(C)cc(N(C)C)c5c4)cc3)ccc2n1 [Example 9, 1-(4-dimethylamino-2-methylquinolin-6-yl)-3-{4-[3-(4-dimethylamino-2-methylquinolin-6-yl)ureido]phenyl}urea] | 6.10 | 11.5 |
| Cc1cc(N(C)C)c2cc(NC(=O)/C=C/C(=O)Nc3ccc4nc(C)cc(N(C)C)c4c3)ccc2n1 [Example 18, N,N′-bis(4-dimethylamino-2-methylquinolin-6-yl)but-2-enediamide] | 5.92 | 9 |
| Cc1cc(N(C)C)c2cc(NC(=O)c3ccc(C(=O)Nc4ccc5nc(C)cc(N(C)C)c5c4)nc3)ccc2n1 [Example 19, bis[(4-dimethylamino-2-methylquinolin-6-yl)-amido]-2,5-pyridinedicarboxylic acid] | 6.22 | 16 |
| Cc1cc(N(C)C)c2cc(NC(=O)c3ccnc(C(=O)Nc4ccc5nc(C)cc(N(C)C)c5c4)c3)ccc2n1 [Example 20, bis[(4-dimethylamino-2-methylquinolin-6-yl)-amido]-2,4-pyridinedicarboxylic acid] | 5.96 |  |
| Cc1cc(N(C)C)c2cc(NC(=O)Cc3ccc(CC(=O)Nc4ccc5nc(C)cc(N(C)C)c5c4)cc3)ccc2n1 [Example 21, N,N′-bis(4-dimethylamino-2-methylquinolin-6-yl)-1,4-phenylenediacetamide] | 5.89 | 3 |
| Cc1cc(N(C)C)c2cc(NCc3ccc(C(=O)Nc4ccc5nc(C)cc(N(C)C)c5c4)nc3)ccc2n1 [Example 22, [(4-dimethylamino-2-methylquinolin-6-yl)-amido]-5-[(4-dimethylamino-2-methylquinolin-6-ylamino)methyl]pyridine-2-carboxylic acid Hydrochloride] | 5.54 | 4 |

The next compounds have a higher pIC50 [2] than those just listed; values first:

| pIC50 [2] | SMILES | G4 Tm (G4 stabilization differential in ° C., product tested at 1 µM) [1] [°C] |
| --- | --- | --- |
| 6.26 | CSc1c(Cl)nc(Nc2ccc3nc(C)cc(N)c3c2)nc1Nc1ccc2nc(C)cc(N)c2c1 [Example 16, N,N′-bis(4-amino-2-methyl-6-quinolyl)-2,4-diamino-6-chloro-5-methylsulfanylpyrimidine] | 5 |
| 6.30 | Cc1cc(N(C)C)c2cc(NC(=O)c3cccc(C(=O)Nc4ccc5nc(C)cc(N(C)C)c5c4)n3)ccc2n1 [Example 24, bis-[(4-dimethylamino-2-methylquinolin-6-yl)-amido]-2,6-pyridinedicarboxylic acid hydrochloride] | 15.6 |
| 6.51 | Cc1cc(N)c2cc(NC(=O)c3cccc(C(=O)Nc4ccc5nc(C)cc(N)c5c4)c3)ccc2n1 [Example 6, N,N′-bis(4-amino-2-methylquinolin-6-yl)-isophthalamide] | 16 |
| 6.52 | Cc1cc(N)c2cc(NC(=O)c3ccc(C(=O)Nc4ccc5nc(C)cc(N)c5c4)nc3)ccc2n1.Cl [Example 17, bis[(4-amino-2-methylquinolin-6-yl)amido]-2,5-pyridinedicarboxylic acid Hydrochloride] | 5.5 |
| 6.70 | Cc1cc(N)c2cc(NC(=O)c3cccc(C(=O)Nc4ccc5nc(C)cc(N)c5c4)n3)ccc2n1 [Example 23, bis[(4-amino-2-methylquinolin-6-yl)-amido]-2,6-pyridinedicarboxylic acid hydrochloride] | 23 |
